According to patent EP1313763B1, “METHOD FOR THE EXTRACTION AND THE USE OF ANTI[…] PEPTIDES FOR TREATING INFECTIOUS DISEASES” (IPF Pharmaceuticals GmbH, priority 2000, dated 2001):

What was measured:
[1] = tested on: E. coli; experiment: Radial diffusion inhibition test of HPLC fractions; type: cell-based, Escherichia coli; conditions: pure peptide in purified HPLC fraction from tissue extract; E. coli in agarose, 37 °C, 16 h
Source text: (§1) Für die Reinigung von antimikrobiellen Peptiden aus Plazentaextrakt können verschiedene HPLC Trennverfahren kombiniert werden, um eine möglichst reine Darstellung über eine optimale Trennung zu erzielen und inaktive, unerwünschte Bestandteile abzutrennen. Die jeweiligen Proben, die nach jedem Trennungsschritt entstehen, werden auf ihre antimikrobielle Aktivität gegen Escherichla coli mit Hilfe des Radial-DifFusions-Hemmtests untersucht (siehe Beispiel 3). Notwendig für die Reinigung ist die Kombination von mindestens zwei Reverse Phase Chromatographieschritten und der Einsatz einer Kationenaustausch-HPLC-Trennung. In dem Biotest sollte die jeweilige Probe salzarm eingesetzt werden, um ein möglichst optimales Screeningergebnis zu erhalten.
as §1, with “Thymusextrakt” for “Plazentaextrakt”, “Escherichia” for “Escherichla”, “Radial-Diffusions-Hemmtests” for “Radial-DifFusions-Hemmtests”, “2). Empfehlenswert” for “3). Notwendig”, “In dem Biotest sollte die jeweilige Probe salzarm eingesetzt werden, um ein möglichst optimales Screeningergebnis zu erhalten.” left out

[2] = tested on: Bacillus subtilis ATCC 6051; experiment: Minimal inhibitory concentration (MIC) determination; conditions: incubation 18 ± 2 h, chemically synthesized peptides
Procedure: (§2) Die antimikrobielle Aktivität der erfindungsgemäßen Peptide wurde unter Anwendung der Bestimmung der minimalen Hemmstoffkonzentration (MIC) gegen verschiedene Keime, wie Gram-positive und Gram-negative Bakterien und Hefen, untersucht. Die minimale Hemmstoffkonzentration bezeichnet die Peptidkonzentration, die minimal erforderlich ist, um das Wachstum von Mikroorganismen nach einer Inkubationszeit von 18 ± 2 h vollständig zu hemmen.

[3] = tested on: Micrococcus luteus ATCC 9341; experiment: as above; conditions: incubation 18 ± 2 h, chemically synthesized peptides
Procedure: as §2

[4] = tested on: Staphylococcus aureus ATTC 25923; experiment: as above; conditions: incubation 18 ± 2 h, chemically synthesized peptides
Source text: (§3) Dabei werden als Testmikroorganismen entweder Staphylococcus aureus oder Escherichia coli verwendet, je nachdem, bei welchem Mikroorganismus das Peptid bessere Wirksamkeit hat. Die Bakterien sind wie folgt charakterisiert: • Staphylococcous aureus: Gram-positive Kokken, ATCC 25923 • Escherichia coll: Gram-negative Stäbchen, ATCC 25922
(§4) Die antimikrobielle Aktivität der erfindungsgemäßen Peptide wurde unter Anwendung der Bestimmung der minimalen Hemmstoffkonzentration (MIC) gegen verschiedene Keime, wie Gram-positive und Gram-negative Bakterien und Hefen, untersucht. Die minimale Hemmstoffkonzentration bezeichnet die Peptidkonzentration, die minimal erforderlich ist, um das Wachstum von Mikroorganismen nach einer Inkubationszeit von 18 ± 2 h vollständig zu hemmen. Diese Quantifizierung der antimikrobiellen Aktivität ist mit chemisch synthetisierten Peptiden (Peptidsequenzen 1-5) gegen nicht pathogene sowie human pathogene Erreger durchgeführt worden.

[5] = tested on: Staphylococcus carnosus TM 300; experiment: as above; conditions: incubation 18 ± 2 h, chemically synthesized peptides
Procedure: as §2

[6] = tested on: Escherichia coli ATTC 25922; experiment: as above; conditions: incubation 18 ± 2 h, chemically synthesized peptides
Source text: as §3, §4

[7] = tested on: Escherichia coli BL21 (DE3); experiment: as above; conditions: incubation 18 ± 2 h, chemically synthesized peptides
Procedure: as §2

[8] = tested on: Saccharomyces cerevisiae ATCC 9763; experiment: as above; conditions: incubation 18 ± 2 h, chemically synthesized peptides
Procedure: as §2

[9] = tested on: Pseudomonas aeruginosa clinical isolate; experiment: as above; conditions: incubation 18 ± 2 h, chemically synthesized peptides
Procedure: as §2

[10] = tested on: Klebsiella pneumoniae ATCC 10031; experiment: as above; conditions: incubation 18 ± 2 h, chemically synthesized peptides
Procedure: as §2

## hHEM-g-130-146 [Peptide 1]
[1]
  antimikrobielle Aktivität: antimikrobiell wirksame
[2]
  minimale Hemmkonzentration (MIC): 100 µg/mL
[3]
  minimale Hemmkonzentration (MIC): 200 µg/mL
[4]
  minimale Hemmkonzentration (MIC): 200 µg/mL
[5]
  minimale Hemmkonzentration (MIC): 100 µg/mL
[6]
  minimale Hemmkonzentration (MIC): 200 µg/mL
[7]
  minimale Hemmkonzentration (MIC): 100 µg/mL
[8]
  minimale Hemmkonzentration (MIC): 100 µg/mL
[9]
  minimale Hemmkonzentration (MIC): > 200 µg/mL
[10]
  minimale Hemmkonzentration (MIC): 300 µg/mL

## hGAPDH-1-31 [Peptide 2]
[1]
  antimikrobielle Aktivität: antimikrobiell wirksame
[2]
  minimale Hemmkonzentration (MIC): 7.8 µg/mL
[3]
  minimale Hemmkonzentration (MIC): 31.25 µg/mL
[5]
  minimale Hemmkonzentration (MIC): 12.5 µg/mL
[7]
  minimale Hemmkonzentration (MIC): 7.8 µg/mL
[8]
  minimale Hemmkonzentration (MIC): 100 µg/mL
[9]
  minimale Hemmkonzentration (MIC): 31.25 µg/mL
